Laboratory results published in patent US20110053773A1, “METHODS OF IMPROVING NUTRITIONAL VALUE OF PLANTS” (UNIVERSITY OF TENNESSEE RESEARCH FOUNDATION, priority 2009, published 2011).

What was measured:
[1] = test system: kale ‘Red Russian’; test: Yield, fresh weight of kale after insecticide, fungicide and PGRs (Example 4, Table 12); assay type: in vivo; conditions: 28 DA-A, Untreated Check 106.9
Protocol: (§1) Greenhouse and laboratory studies were conducted to ascertain the tolerance and nutritional quality differences following postemergence applications of the insecticide chlorpyrifos, the fungicide chlorothalonil, the PGRs mepiquat-chloride and paclobutrazol, and the safeners napthalic anhydride and isoxadifen-ethyl on kale ‘Red Russian’ and basil ‘Genovese’. Visual injury was rated based on general phytotoxicity, chlorosis, and visual stunting and each measurement was based on a percent scale from 0 to 100 where 0 equals no visual response and 100 equals complete plant death. Kale and basil were both harvested approximately 4 weeks after treatments and plants were pooled over replicates for content analysis of crude protein, crude amino acid content, acid detergent fiber, neutral detergent fiber, total fatty acids, and/or key mineral content (including Na, Ca, P, Mg, K, Fe, Mn, Zn, and Cu). In addition, the amounts of key individual amino acids (aspartic acid, threonine, glutamic acid, proline, glycine, cysteine, valine, leucine, isoleucine, methionine, and lysine) and composite classifications of fatty acid (saturated fatty acids, monounsaturated fatty acids, polyunsaturated fatty acids) were also analyzed from these sub-samples for kale (Tables 10-14).

[2] = test system: kale 'Red Russian'; test: Content analysis of kale: protein, amino acids, fiber, fatty acids, minerals (Example 4, Tables 12-14); assay type: in vivo; conditions: 28 DA-A; for Alanine, Percent Increase over the Untreated Check (on a % dry matter basis) / Aspartic acid, Percent Increase over the Untreated Check (on a % dry matter basis) / Cysteine, Percent Increase over the Untreated Check (on a % dry matter basis) / Glutamic acid, Percent Increase over the Untreated Check (on a % dry matter basis) / Glycine, Percent Increase over the Untreated Check (on a % dry matter basis) / Iso-leucine, Percent Increase over the Untreated Check (on a % dry matter basis) / Leucine, Percent Increase over the Untreated Check (on a % dry matter basis) / Lysine, Percent Increase over the Untreated Check (on a % dry matter basis) / Methionine, Percent Increase over the Untreated Check (on a % dry matter basis) / Proline, Percent Increase over the Untreated Check (on a % dry matter basis) / Threonine, Percent Increase over the Untreated Check (on a % dry matter basis) / Total Amino acids, Percent Increase over the Untreated Check (on a % dry matter basis) / Total Protein, Percent Increase over the Untreated Check (on a % dry matter basis) / Valine, Percent Increase over the Untreated Check (on a % dry matter basis): chlorothalonil ###
Protocol: as §1

[3] = test system: basil 'Genovese'; test: Visual injury of basil after insecticide, fungicide, PGRs, safeners (Example 4); conditions: 7 DA-A
How it was run: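 Read-out: percent visual injury, 0 (no visual response) to 100 (complete plant death), covering general phytotoxicity, chlorosis and stunting. Treatments were chlorpyrifos, chlorothalonil, mepiquat-chloride, paclobutrazol, napthalic anhydride, isoxadifen-ethyl, applied postemergence. Harvest at ~4 weeks.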

[4] = rates g ai/ha: chlropyrifos 1120, chlorothalonil 2630, paclobutrazol 3.23, mepiquat-chloride 12.3, + NIS 0.25 % v/v
[5] = rates g ai/ha: chlropyrifos 3370, chlorothalonil 7900, paclobutrazol 9.7, mepiquat-chloride 37, + NIS 0.25 % v/v
[6] = first-listed rate g ai/ha: chlropyrifos ###, paclobutrazol 3.2, mepiquat-chloride 12, + NIS 0.3 % v/v
[7] = second-listed rate g ai/ha: chlropyrifos ###, paclobutrazol 9.7, mepiquat-chloride 37, + NIS 0.3 % v/v
[8] = rates g ai/ha: chlropyrifos 1120, chlorothalonil 2630, paclobutrazol 3.23, mepiquat-chloride 12.3, Isoxadifen 8, Napthalic anhydride 264, + NIS 0.25 % v/v
[9] = rates g ai/ha: chlropyrifos 3370, chlorothalonil 7900, paclobutrazol 9.7, mepiquat-chloride 37, Isoxadifen 16, Napthalic anhydride 527, + NIS 0.25 % v/v

SMILES: N#Cc1c(Cl)c(Cl)c(Cl)c(C#N)c1Cl [chlorothalonil]
- Yield Fresh weight [1, 4]: 102.5 grams
- Yield Fresh weight [1, 5]: 107.5 grams
- Alanine, Percent Increase over the Untreated Check (on a % dry matter basis) [2, 6]: 3 % check
- Aspartic acid, Percent Increase over the Untreated Check (on a % dry matter basis) [2, 6]: 2 % check
- Cysteine, Percent Increase over the Untreated Check (on a % dry matter basis) [2, 6]: −6 % check
- Glutamic acid, Percent Increase over the Untreated Check (on a % dry matter basis) [2, 6]: 5 % check
- Glycine, Percent Increase over the Untreated Check (on a % dry matter basis) [2, 6]: 0 % check
- Iso-leucine, Percent Increase over the Untreated Check (on a % dry matter basis) [2, 6]: 4 % check
- Leucine, Percent Increase over the Untreated Check (on a % dry matter basis) [2, 6]: 4 % check
- Lysine, Percent Increase over the Untreated Check (on a % dry matter basis) [2, 6]: 5 % check
- Methionine, Percent Increase over the Untreated Check (on a % dry matter basis) [2, 6]: 2 % check
- Proline, Percent Increase over the Untreated Check (on a % dry matter basis) [2, 6]: 6 % check
- Threonine, Percent Increase over the Untreated Check (on a % dry matter basis) [2, 6]: 3 % check
- Total Amino acids, Percent Increase over the Untreated Check (on a % dry matter basis) [2, 6]: 3 % check
- Total Protein, Percent Increase over the Untreated Check (on a % dry matter basis) [2, 6]: 1 % check
- Valine, Percent Increase over the Untreated Check (on a % dry matter basis) [2, 6]: 4 % check
- ADF, Percent Increase Over the Untreated Check (on a % dry matter basis) [2, 4]: 9 % check
- Calcium, Percent Increase Over the Untreated Check (on a % dry matter basis) [2, 4]: −6 % check
- Copper, Percent Increase Over the Untreated Check (on a % dry matter basis) [2, 4]: 6 % check
- Iron, Percent Increase Over the Untreated Check (on a % dry matter basis) [2, 4]: −1 % check
- Magnesium, Percent Increase Over the Untreated Check (on a % dry matter basis) [2, 4]: −3 % check
- Manganese, Percent Increase Over the Untreated Check (on a % dry matter basis) [2, 4]: 3 % check
- NDF, Percent Increase Over the Untreated Check (on a % dry matter basis) [2, 4]: −8 % check
- Phosphorous, Percent Increase Over the Untreated Check (on a % dry matter basis) [2, 4]: 0 % check
- Potassium, Percent Increase Over the Untreated Check (on a % dry matter basis) [2, 4]: −9 % check
- Sodium, Percent Increase Over the Untreated Check (on a % dry matter basis) [2, 4]: 4 % check
- Zinc, Percent Increase Over the Untreated Check (on a % dry matter basis) [2, 4]: −4 % check
- ADF, Percent Increase Over the Untreated Check (on a % dry matter basis) [2, 5]: 0 % check
- Calcium, Percent Increase Over the Untreated Check (on a % dry matter basis) [2, 5]: −1 % check
- Copper, Percent Increase Over the Untreated Check (on a % dry matter basis) [2, 5]: 6 % check
- Iron, Percent Increase Over the Untreated Check (on a % dry matter basis) [2, 5]: −3 % check
- Magnesium, Percent Increase Over the Untreated Check (on a % dry matter basis) [2, 5]: −3 % check
- Manganese, Percent Increase Over the Untreated Check (on a % dry matter basis) [2, 5]: 4 % check
- NDF, Percent Increase Over the Untreated Check (on a % dry matter basis) [2, 5]: −5 % check
- Phosphorous, Percent Increase Over the Untreated Check (on a % dry matter basis) [2, 5]: −3 % check
- Potassium, Percent Increase Over the Untreated Check (on a % dry matter basis) [2, 5]: −3 % check
- Sodium, Percent Increase Over the Untreated Check (on a % dry matter basis) [2, 5]: 23 % check
- Zinc, Percent Increase Over the Untreated Check (on a % dry matter basis) [2, 5]: −3 % check
- Alanine, Percent Increase over the Untreated Check (on a % dry matter basis) [2, 7]: −5 % check
- Aspartic acid, Percent Increase over the Untreated Check (on a % dry matter basis) [2, 7]: −4 % check
- Cysteine, Percent Increase over the Untreated Check (on a % dry matter basis) [2, 7]: −6 % check
- Glutamic acid, Percent Increase over the Untreated Check (on a % dry matter basis) [2, 7]: −5 % check
- Glycine, Percent Increase over the Untreated Check (on a % dry matter basis) [2, 7]: −7 % check
- Iso-leucine, Percent Increase over the Untreated Check (on a % dry matter basis) [2, 7]: −2 % check
- Leucine, Percent Increase over the Untreated Check (on a % dry matter basis) [2, 7]: −1 % check
- Lysine, Percent Increase over the Untreated Check (on a % dry matter basis) [2, 7]: −3 % check
- Methionine, Percent Increase over the Untreated Check (on a % dry matter basis) [2, 7]: −2 % check
- Proline, Percent Increase over the Untreated Check (on a % dry matter basis) [2, 7]: −3 % check
- Threonine, Percent Increase over the Untreated Check (on a % dry matter basis) [2, 7]: −1 % check
- Total Amino acids, Percent Increase over the Untreated Check (on a % dry matter basis) [2, 7]: −4 % check
- Total Protein, Percent Increase over the Untreated Check (on a % dry matter basis) [2, 7]: −3 % check
- Valine, Percent Increase over the Untreated Check (on a % dry matter basis) [2, 7]: −3 % check
- Phytotoxicity Chlorosis [3, 8]: 5%
- Phytotoxicity General [3, 8]: 5%
- Phytotoxicity Stunting [3, 8]: 5%
- Phytotoxicity Chlorosis [3, 9]: 15%
- Phytotoxicity General [3, 9]: 3%
- Phytotoxicity Stunting [3, 9]: 5%
